Experimental data reported in ChEMBL document CHEMBL5325467, “Discovery of novel hypoxia-activated, nitroimidazole constructed multi-target kinase inhibitors on the basis of AZD9291 for the treatment of human lung cancer” (Bioorg Med Chem, 2023).
Blank lines part the entries; values can stand above or below the compound they belong to.

Columns and labels:
[1] = biological target: Epidermal growth factor receptor (Homo sapiens, UniProt P00533, L858R/T790M); assay: Inhibition of EGFR L858R/T790M mutant (unknown origin) by mobility shift assay
[2] = biological target: T1, Epidermal growth factor receptor (Homo sapiens, UniProt P00533); assay: Inhibition of wild type EGFR (unknown origin) by mobility shift assay
[3] = Selectivity index, ratio of IC50 for inhibition of wild type EGFR (unknown origin) to IC50 for inhibition of EGFR L858R/T790M mutant (unknown origin)
NCI-H1975 [4] = assay: Antiproliferative activity against human NCI-H1975 cells harboring EGFR L858R/T790M mutant assessed as inhibition of cell growth incubated for 72 hrs under normoxia condition by SRB assay; assay type: functional, cell-based; details: NCI-H1975, 72 h
NCI-H1975 [5] = assay: Antiproliferative activity against human NCI-H1975 cells harboring EGFR L858R/T790M mutant assessed as inhibition of cell growth incubated for 72 hrs under hypoxia condition by SRB assay; assay type: functional, cell-based; details: NCI-H1975, 72 h
[6] = Ratio of IC50 for antiproliferative activity against human NCI-H1975 cells harboring EGFR L858R/T790M mutant under normoxia condition to IC50 for antiproliferative activity against human NCI-H1975 cells harboring EGFR L858R/T790M mutant under hypoxia condition; assay type: functional
HCC827 [7] = assay: Antiproliferative activity against human HCC827 cells harboring EGFR del19 mutant assessed as inhibition of cell growth incubated for 72 hrs under normoxia condition by SRB assay; assay type: functional, cell-based; details: HCC827, 72 h
HCC827 [8] = assay: Antiproliferative activity against human HCC827 cells harboring EGFR del19 mutant assessed as inhibition of cell growth incubated for 72 hrs under hypoxia condition by SRB assay; assay type: functional, cell-based; details: HCC827, 72 h
[9] = Ratio of IC50 for antiproliferative activity against human HCC827 cells harboring EGFR del19 mutant under normoxia condition to IC50 for antiproliferative activity against human HCC827 cells harboring EGFR del19 mutant under hypoxia condition; assay type: functional
[10] = biological target: Fibroblast growth factor receptor 1 (Homo sapiens) (UniProt P11362); assay: Inhibition of FGFR1 (unknown origin) at 1 uM relative to control
[11] = biological target: Vascular endothelial growth factor receptor 2 (Homo sapiens) (UniProt P35968); assay: Inhibition of KDR (unknown origin) at 1 uM relative to control
[12] = biological target: T2, Tyrosine-protein kinase JAK2 (Homo sapiens, UniProt O60674); assay: Inhibition of JAK2 (unknown origin) at 1 uM relative to control
[13] = biological target: Tyrosine-protein kinase SYK (Homo sapiens) (UniProt P43405); assay: Inhibition of SYK (unknown origin) at 1 uM relative to control
[14] = biological target: Proto-oncogene tyrosine-protein kinase receptor Ret (Homo sapiens) (UniProt P07949); assay: Inhibition of RET (unknown origin) at 1 uM relative to control
[15] = biological target: High affinity nerve growth factor receptor (Homo sapiens) (UniProt P04629); assay: Inhibition of TRKA (unknown origin) at 1 uM relative to control
[16] = biological target: Tyrosine-protein kinase JAK3 (Homo sapiens) (UniProt P52333); assay: Inhibition of JAK3 (unknown origin) at 1 uM relative to control
[17] = biological target: Proto-oncogene tyrosine-protein kinase Src (Homo sapiens) (UniProt P12931); assay: Inhibition of SRC (unknown origin) at 1 uM relative to control
[18] = biological target: Hepatocyte growth factor receptor (Homo sapiens) (UniProt P08581); assay: Inhibition of MET (unknown origin) at 1 uM relative to control
[19] = biological target: Mitogen-activated protein kinase 10 (Homo sapiens) (UniProt P53779); assay: Inhibition of JNK3 (unknown origin) at 1 uM relative to control
[20] = biological target: T3, Proto-oncogene tyrosine-protein kinase ROS (Homo sapiens, UniProt P08922); assay: Inhibition of ROS1 (unknown origin) at 1 uM relative to control
[21] = biological target: Mast/stem cell growth factor receptor Kit (Homo sapiens) (UniProt P10721); assay: Inhibition of KIT (unknown origin) at 1 uM relative to control
[22] = biological target: Receptor-type tyrosine-protein kinase FLT3 (Homo sapiens) (UniProt P36888); assay: Inhibition of FLT3 (unknown origin) at 1 uM relative to control
[23] = biological target: Tyrosine-protein kinase BTK (Homo sapiens) (UniProt Q06187); assay: Inhibition of BTK (unknown origin) at 1 uM relative to control
[24] = biological target: Receptor tyrosine-protein kinase erbB-2 (Homo sapiens) (UniProt P04626); assay: Inhibition of HER2 (unknown origin) at 1 uM relative to control
[25] = biological target: T4, Vascular endothelial growth factor receptor 3 (Homo sapiens, UniProt P35916); assay: Inhibition of FLT4 (unknown origin) at 1 uM relative to control
[26] = biological target: ALK tyrosine kinase receptor (Homo sapiens) (UniProt Q9UM73); assay: Inhibition of ALK (unknown origin) at 1 uM relative to control
[27] = biological target: T5, Platelet-derived growth factor receptor alpha (Homo sapiens, UniProt P16234); assay: Inhibition of PDGFRalpha (unknown origin) at 1 uM relative to control
[28] = biological target: T1, Epidermal growth factor receptor; assay: Inhibition of EGFR (unknown origin) at 1 uM relative to control
[29] = biological target: MAP kinase-activated protein kinase 2 (Homo sapiens) (UniProt P49137); assay: Inhibition of MAPKAPK2 (unknown origin) at 1 uM relative to control
[30] = test system: Epidermal growth factor receptor (Homo sapiens), P00533 [L858R,T790M,C797S]; assay: Inhibition of EGFR L858R/T790M/C797S triple mutant (unknown origin) at 1 uM relative to control
Homo sapiens = organism: Homo sapiens; assay: Inhibition of ABL (unknown origin) at 1 uM relative to control
[31] = biological target: RAC-alpha serine/threonine-protein kinase (Homo sapiens) (UniProt P31749); assay: Inhibition of AKT1 (unknown origin) at 1 uM relative to control
[32] = biological target: Mitogen-activated protein kinase 1 (Homo sapiens) (UniProt P28482); assay: Inhibition of ERK2 (unknown origin) at 1 uM relative to control
[33] = biological target: Tyrosine-protein kinase receptor UFO (Homo sapiens) (UniProt P30530); assay: Inhibition of AXL (unknown origin) at 1 uM relative to control
[34] = biological target: Focal adhesion kinase 1 (Homo sapiens) (UniProt Q05397); assay: Inhibition of FAK (unknown origin) at 1 uM relative to control
[35] = biological target: Tyrosine-protein kinase ITK/TSK (Homo sapiens) (UniProt Q08881); assay: Inhibition of ITK (unknown origin) at 1 uM relative to control
[36] = test system: Serine/threonine-protein kinase B-raf (Homo sapiens), P15056 [V600E]; assay: Inhibition of BRAF V600E mutant (unknown origin) at 1 uM relative to control
[37] = biological target: Cyclin-dependent kinase 4/cyclin D1 (Homo sapiens) (UniProt P11802+P24385); assay: Inhibition of CDK4/CyclinD1 (unknown origin) at 1 uM relative to control; assay type: protein-complex assay
[38] = biological target: T2, Tyrosine-protein kinase JAK2; assay: Inhibition of JAK2 (unknown origin)
[39] = biological target: T3, Proto-oncogene tyrosine-protein kinase ROS; assay: Inhibition of ROS1 (unknown origin)
[40] = biological target: Receptor-type tyrosine-protein kinase FLT3 (Homo sapiens, UniProt P36888); assay: Inhibition of FLT3 (unknown origin)
[41] = biological target: T4, Vascular endothelial growth factor receptor 3; assay: Inhibition of FLT4 (unknown origin)
[42] = biological target: T5, Platelet-derived growth factor receptor alpha; assay: Inhibition of PDGFRalpha (unknown origin)
[43] = (§1) Reductive activation in PBS at pH 7.4 assessed as A14-1 metabolite formation at 1 uM incubated for 30 mins in presence of cysteine, NADPH and nitroreductase under N2 condition by MS/MS analysis; assay type: ADME; details: buffer, pH 7.4, 0.5 h
[44] = as §1, with “2-amino-3-[2-amino-5-[amino(carboxy)methyl]sulfanyl-1-[2-[2-[2-methoxy-5-[[4-(1-methylindol-3-yl)pyrimidin-2-yl]amino]phenoxy]ethoxy]ethyl]imidazol-4-yl]sulfanyl-propanoic acid” for “A14-1”; assay type: ADME; details: buffer, pH 7.4, 0.5 h
[45] = Reductive activation in PBS at pH 7.4 assessed as hydroxylamine intermediate formation at 1 uM incubated for 30 mins in presence of cysteine, NADPH and nitroreductase under hypoxia condition by MS/MS analysis; details: buffer, pH 7.4, 0.5 h
[46] = (§2) Reductive activation in PBS at pH 7.4 assessed as A14-1 metabolite formation at 1 uM incubated for 30 mins in presence of cysteine, NADPH and nitroreductase under hypoxia condition by MS/MS analysis; assay type: ADME; details: buffer, pH 7.4, 0.5 h
[47] = as §2, with “2-amino-3-[2-amino-5-[amino(carboxy)methyl]sulfanyl-1-[2-[2-[2-methoxy-5-[[4-(1-methylindol-3-yl)pyrimidin-2-yl]amino]phenoxy]ethoxy]ethyl]imidazol-4-yl]sulfanyl-propanoic acid” for “A14-1”; assay type: ADME; details: buffer, pH 7.4, 0.5 h
[48] = (§3) Reductive activation in PBS at pH 7.4 assessed as A14-1 metabolite formation at 1 uM incubated for 30 mins in presence of cysteine, NADPH and nitroreductase under normoxia condition by MS/MS analysis; assay type: ADME; details: buffer, pH 7.4, 0.5 h
[49] = as §3, with “2-amino-3-[2-amino-5-[amino(carboxy)methyl]sulfanyl-1-[2-[2-[2-methoxy-5-[[4-(1-methylindol-3-yl)pyrimidin-2-yl]amino]phenoxy]ethoxy]ethyl]imidazol-4-yl]sulfanyl-propanoic acid” for “A14-1”; assay type: ADME; details: buffer, pH 7.4, 0.5 h
[50] = biological target: 3-phosphoinositide-dependent protein kinase 1 (Homo sapiens) (UniProt O15530); assay: Inhibition of PDK1 (unknown origin) at 1 uM relative to control

T1 sequence (P00533 whole entry): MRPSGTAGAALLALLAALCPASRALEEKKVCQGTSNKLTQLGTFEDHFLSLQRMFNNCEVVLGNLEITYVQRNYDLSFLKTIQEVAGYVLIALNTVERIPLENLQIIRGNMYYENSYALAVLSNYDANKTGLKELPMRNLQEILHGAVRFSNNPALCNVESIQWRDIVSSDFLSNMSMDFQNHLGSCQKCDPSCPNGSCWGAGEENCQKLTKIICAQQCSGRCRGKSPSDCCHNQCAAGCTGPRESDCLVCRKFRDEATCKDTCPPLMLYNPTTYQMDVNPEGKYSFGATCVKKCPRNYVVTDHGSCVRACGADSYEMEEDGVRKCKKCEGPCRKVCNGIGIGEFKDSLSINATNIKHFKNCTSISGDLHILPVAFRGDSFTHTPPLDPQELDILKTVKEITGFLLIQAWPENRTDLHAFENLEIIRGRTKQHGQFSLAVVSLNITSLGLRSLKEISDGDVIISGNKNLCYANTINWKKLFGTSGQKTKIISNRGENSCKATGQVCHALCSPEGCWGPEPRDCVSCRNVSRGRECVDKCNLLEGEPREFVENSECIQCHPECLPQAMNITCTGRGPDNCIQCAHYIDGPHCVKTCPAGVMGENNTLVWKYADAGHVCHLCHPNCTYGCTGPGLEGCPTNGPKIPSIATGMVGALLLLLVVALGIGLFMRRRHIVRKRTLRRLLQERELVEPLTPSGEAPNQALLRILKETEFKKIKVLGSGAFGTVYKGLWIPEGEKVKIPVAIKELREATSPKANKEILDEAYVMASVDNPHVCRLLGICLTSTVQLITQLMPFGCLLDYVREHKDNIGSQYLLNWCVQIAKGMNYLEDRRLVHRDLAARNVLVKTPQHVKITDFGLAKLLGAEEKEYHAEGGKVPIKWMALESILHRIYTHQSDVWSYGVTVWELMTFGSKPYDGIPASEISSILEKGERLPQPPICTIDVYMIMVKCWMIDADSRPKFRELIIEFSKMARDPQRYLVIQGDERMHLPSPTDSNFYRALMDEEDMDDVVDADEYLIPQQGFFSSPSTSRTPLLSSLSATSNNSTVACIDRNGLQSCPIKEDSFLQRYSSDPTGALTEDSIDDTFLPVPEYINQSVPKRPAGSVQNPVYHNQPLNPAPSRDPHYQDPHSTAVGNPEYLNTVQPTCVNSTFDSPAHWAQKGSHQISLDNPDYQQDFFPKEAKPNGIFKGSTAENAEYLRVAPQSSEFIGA
Epidermal growth factor receptor (Homo sapiens, UniProt P00533, L858R/T790M), sequence (P00533 25-1210 T790M/L858R limits assumed): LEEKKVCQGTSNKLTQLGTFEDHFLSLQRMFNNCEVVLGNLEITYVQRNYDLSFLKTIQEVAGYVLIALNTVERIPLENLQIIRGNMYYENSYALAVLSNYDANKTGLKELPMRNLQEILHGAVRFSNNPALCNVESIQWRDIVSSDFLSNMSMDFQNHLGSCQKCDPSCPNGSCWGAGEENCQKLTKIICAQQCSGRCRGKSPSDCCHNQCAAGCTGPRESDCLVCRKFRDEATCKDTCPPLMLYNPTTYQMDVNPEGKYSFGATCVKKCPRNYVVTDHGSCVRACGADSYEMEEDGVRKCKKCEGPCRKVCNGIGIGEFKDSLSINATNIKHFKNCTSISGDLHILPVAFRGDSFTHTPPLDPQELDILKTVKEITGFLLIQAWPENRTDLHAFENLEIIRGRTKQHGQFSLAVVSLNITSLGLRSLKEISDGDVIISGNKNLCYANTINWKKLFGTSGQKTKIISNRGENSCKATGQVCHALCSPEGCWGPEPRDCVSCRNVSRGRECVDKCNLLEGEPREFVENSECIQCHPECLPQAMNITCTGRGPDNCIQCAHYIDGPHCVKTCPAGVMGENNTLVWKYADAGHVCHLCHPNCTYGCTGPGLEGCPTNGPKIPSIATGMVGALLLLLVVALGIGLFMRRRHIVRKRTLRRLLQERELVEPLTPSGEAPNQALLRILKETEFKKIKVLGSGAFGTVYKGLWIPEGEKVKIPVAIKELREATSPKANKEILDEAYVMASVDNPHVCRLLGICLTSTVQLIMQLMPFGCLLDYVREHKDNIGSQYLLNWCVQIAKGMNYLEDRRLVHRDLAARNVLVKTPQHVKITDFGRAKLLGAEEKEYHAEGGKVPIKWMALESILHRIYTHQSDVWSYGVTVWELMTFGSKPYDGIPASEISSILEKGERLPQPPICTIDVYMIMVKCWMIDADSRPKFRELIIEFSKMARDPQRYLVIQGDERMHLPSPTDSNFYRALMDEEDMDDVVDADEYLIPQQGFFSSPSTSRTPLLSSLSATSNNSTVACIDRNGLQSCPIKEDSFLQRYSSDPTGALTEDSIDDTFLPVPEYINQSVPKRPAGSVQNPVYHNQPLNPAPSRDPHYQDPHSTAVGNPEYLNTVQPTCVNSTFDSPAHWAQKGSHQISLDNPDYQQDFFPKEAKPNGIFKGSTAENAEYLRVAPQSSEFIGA
T5 sequence (P16234 whole entry): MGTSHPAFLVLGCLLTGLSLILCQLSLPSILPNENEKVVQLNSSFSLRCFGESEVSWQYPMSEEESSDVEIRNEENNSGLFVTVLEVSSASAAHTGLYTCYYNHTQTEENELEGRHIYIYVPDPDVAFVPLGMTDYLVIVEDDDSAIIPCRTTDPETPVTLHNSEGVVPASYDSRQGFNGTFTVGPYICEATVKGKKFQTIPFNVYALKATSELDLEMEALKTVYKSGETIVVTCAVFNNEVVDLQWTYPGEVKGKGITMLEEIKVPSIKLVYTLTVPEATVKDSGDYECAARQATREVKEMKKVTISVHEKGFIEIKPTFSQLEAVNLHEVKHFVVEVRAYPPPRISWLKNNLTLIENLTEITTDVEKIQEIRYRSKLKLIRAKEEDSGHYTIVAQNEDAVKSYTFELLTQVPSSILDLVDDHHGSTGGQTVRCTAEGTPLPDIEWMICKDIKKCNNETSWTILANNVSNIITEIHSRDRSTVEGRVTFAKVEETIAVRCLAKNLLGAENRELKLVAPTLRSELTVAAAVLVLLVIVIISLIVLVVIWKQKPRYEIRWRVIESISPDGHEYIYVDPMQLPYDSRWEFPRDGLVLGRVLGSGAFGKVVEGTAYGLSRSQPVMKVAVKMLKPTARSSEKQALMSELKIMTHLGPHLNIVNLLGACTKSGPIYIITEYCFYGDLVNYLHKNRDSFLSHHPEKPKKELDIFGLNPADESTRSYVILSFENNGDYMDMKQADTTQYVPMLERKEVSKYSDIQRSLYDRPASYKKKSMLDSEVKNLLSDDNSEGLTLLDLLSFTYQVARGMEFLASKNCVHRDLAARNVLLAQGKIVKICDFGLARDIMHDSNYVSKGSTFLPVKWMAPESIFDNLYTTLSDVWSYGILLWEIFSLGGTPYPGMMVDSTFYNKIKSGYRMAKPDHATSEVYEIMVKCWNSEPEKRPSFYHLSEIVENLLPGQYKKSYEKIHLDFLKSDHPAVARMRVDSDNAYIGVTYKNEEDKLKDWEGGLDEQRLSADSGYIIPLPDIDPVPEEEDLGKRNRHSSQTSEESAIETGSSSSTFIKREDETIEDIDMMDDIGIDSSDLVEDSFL
T2 sequence (O60674 whole entry): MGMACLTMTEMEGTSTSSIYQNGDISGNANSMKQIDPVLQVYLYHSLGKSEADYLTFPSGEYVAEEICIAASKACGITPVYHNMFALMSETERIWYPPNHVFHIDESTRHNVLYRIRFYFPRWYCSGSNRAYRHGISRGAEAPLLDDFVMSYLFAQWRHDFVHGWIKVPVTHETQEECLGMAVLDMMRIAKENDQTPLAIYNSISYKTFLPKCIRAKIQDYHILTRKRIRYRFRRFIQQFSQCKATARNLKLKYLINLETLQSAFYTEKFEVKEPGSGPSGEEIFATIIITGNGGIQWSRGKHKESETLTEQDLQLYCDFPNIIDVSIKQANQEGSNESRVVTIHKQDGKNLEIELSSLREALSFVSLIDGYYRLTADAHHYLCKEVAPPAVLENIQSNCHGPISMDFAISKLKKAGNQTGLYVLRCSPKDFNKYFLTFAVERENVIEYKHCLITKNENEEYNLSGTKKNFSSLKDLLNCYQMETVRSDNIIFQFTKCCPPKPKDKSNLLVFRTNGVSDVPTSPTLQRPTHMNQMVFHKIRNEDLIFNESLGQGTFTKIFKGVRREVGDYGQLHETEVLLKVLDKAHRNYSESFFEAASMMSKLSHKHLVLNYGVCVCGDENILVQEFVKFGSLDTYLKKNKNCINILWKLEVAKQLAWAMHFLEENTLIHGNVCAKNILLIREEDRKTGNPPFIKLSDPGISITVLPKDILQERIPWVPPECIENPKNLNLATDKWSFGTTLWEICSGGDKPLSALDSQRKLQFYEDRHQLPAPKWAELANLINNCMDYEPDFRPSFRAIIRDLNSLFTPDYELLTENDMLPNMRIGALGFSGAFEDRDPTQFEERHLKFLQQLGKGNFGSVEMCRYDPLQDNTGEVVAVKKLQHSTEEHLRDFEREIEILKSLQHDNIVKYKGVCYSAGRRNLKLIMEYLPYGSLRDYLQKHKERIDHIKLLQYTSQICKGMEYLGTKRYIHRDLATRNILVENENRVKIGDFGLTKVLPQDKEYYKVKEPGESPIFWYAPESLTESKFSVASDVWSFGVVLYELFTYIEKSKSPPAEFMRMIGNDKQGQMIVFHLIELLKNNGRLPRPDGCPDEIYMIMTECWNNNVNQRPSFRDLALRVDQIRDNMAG
MAP kinase-activated protein kinase 2 (Homo sapiens), sequence (P49137 whole entry, looked up): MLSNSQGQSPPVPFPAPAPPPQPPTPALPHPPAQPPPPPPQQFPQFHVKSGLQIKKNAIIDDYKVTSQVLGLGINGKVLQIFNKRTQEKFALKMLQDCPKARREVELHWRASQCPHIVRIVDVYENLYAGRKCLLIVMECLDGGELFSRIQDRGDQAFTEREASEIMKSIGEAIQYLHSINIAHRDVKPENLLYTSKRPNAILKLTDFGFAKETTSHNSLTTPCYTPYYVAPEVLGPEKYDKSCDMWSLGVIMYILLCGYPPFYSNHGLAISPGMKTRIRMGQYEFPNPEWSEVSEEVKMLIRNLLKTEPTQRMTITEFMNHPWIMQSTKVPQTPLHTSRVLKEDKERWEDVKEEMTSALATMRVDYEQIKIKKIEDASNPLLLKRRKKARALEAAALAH

Structure (SMILES): Cn1cc(-c2ccnc(Nc3cccc(OCCCCn4cnc([N+](=O)[O-])c4)c3)n2)c2ccccc21
IC50 [1]: 0.233 µM
IC50 [2]: 1.88 µM
Ratio IC50 [3]: 8.08

Structure (SMILES): Cn1cc(-c2ccnc(Nc3ccc(OCCOCCn4ccnc4[N+](=O)[O-])cc3)n2)c2ccccc21
IC50 [1]: 0.512 µM
IC50 [2]: 9.37 µM
Ratio IC50 [3]: 18.3

Structure (SMILES): Cn1cc(-c2ccnc(Nc3cccc(C(=O)NCCOCCn4ccnc4[N+](=O)[O-])c3)n2)c2ccccc21
IC50 [1]: 0.818 µM

Structure (SMILES): Cn1cc(-c2ccnc(Nc3cccc(COCCOCCn4ccnc4[N+](=O)[O-])c3)n2)c2ccccc21
IC50 [1]: 4.03 µM

Now from value to compound, other results behind:

IC50 [1]: 2.67 µM
Structure (SMILES): Cn1cc(-c2ccnc(Nc3ccc(Cl)c(OCCOCCn4ccnc4[N+](=O)[O-])c3)n2)c2ccccc21

IC50 [1]: 0.177 µM
IC50 [2]: 1.57 µM
IC50 (NCI-H1975 [4]): 0.0262 µM
IC50 (NCI-H1975 [5]): 0.00466 µM
IC50 (HCC827 [7]): 0.025 µM
IC50 (HCC827 [8]): 0.00526 µM
inhibition [10]: -7.07%
inhibition [11]: 50%
inhibition [12]: 79.2%
inhibition [13]: 17%
inhibition [14]: -0.41%
inhibition [15]: 29%
inhibition [16]: 43.2%
inhibition [17]: 36.5%
inhibition [18]: 26.6%
inhibition [19]: 62.7%
inhibition [20]: 84.7%
inhibition [21]: 38.1%
inhibition [22]: 90.5%
inhibition [23]: 27.4%
inhibition [24]: 11.8%
inhibition [25]: 85.7%
inhibition [26]: 42.7%
inhibition [27]: 88.2%
inhibition [28]: 34.8%
inhibition [29]: 17.4%
inhibition [30]: 50.9%
inhibition (Homo sapiens): 23.9%
inhibition [31]: 11.5%
inhibition [32]: 32.4%
inhibition [33]: 44.3%
inhibition [34]: 9%
inhibition [35]: 27.9%
inhibition [36]: 65.4%
inhibition [37]: 8.02%
IC50 [38]: 0.0309 µM
IC50 [39]: 0.107 µM
IC50 [40]: 0.108 µM
IC50 [41]: 0.227 µM
IC50 [42]: 0.0425 µM
Drug metabolism [43]: Metabolite_Detected
Drug metabolism [44]: Metabolite_Detected
Drug metabolism [45]: Metabolite_Detected
Drug metabolism [46]: Metabolite_Detected
Drug metabolism [47]: Metabolite_Detected
Drug metabolism [48]: Metabolite_Notdetected
Drug metabolism [49]: Metabolite_Notdetected
inhibition [50]: 8%
Structure (SMILES): COc1ccc(Nc2nccc(-c3cn(C)c4ccccc34)n2)cc1OCCOCCn1ccnc1[N+](=O)[O-]
Ratio IC50 [6]: 5.63
Ratio IC50 [9]: 4.75

IC50 [1]: 0.262 µM
IC50 [2]: 7.44 µM
Ratio IC50 [3]: 28.4
Structure (SMILES): CC(=O)c1ccc(Nc2nccc(-c3cn(C)c4ccccc34)n2)cc1OCCOCCn1ccnc1[N+](=O)[O-]

IC50 [1]: 0.456 µM
IC50 [2]: 9.2 µM
Ratio IC50 [3]: 20.2
Structure (SMILES): Cc1cc(Nc2nccc(-c3cn(C)c4ccccc34)n2)ccc1OCCOCCn1ccnc1[N+](=O)[O-]
